# In patent US20160220710A1, “COMPOSITIONS AND METHODS FOR DELIVERING PHARMACEUTICAL AGENTS” (THE REGENTS OF THE UNIVERSITY OF MICHIGAN, priority 2015, published 2016):
# How the values were obtained:
# [1] = system: IκB; experiment: Western blot of phosphorylated IκB; format: cell-based, murine; settings: 1 h
# Description: (§1) The murine macrophage cell line RAW 264.7 was purchased from ATCC (Manassas, Va.) and maintained in DMEM (Life Technologies, Carlsbad, Calif.) supplemented with 10% FBS. Soluble CFZ or isolated CLDIs were added at various concentrations in DMEM with 5% FBS to 6-well plates containing 4×10^5 cells/well and incubated (24 h at 37° C. and 5% CO2). Culture supernatants were harvested at 24 h, centrifuged (1500×g for 5 min), and stored (−20° C.) in frozen aliquots prior to analysis. For experiments involving TLR stimulation, cells were washed twice with pre-warmed DPBS to remove extracellular, non-phagocytosed CLDIs or CFZ, and then the cells were serum-starved for 18 h in DMEM. Supernatants were collected from unstimulated cells and cells stimulated with 200 ng/ml Pam3 or 1 μg/ml LPS in DMEM.
# [2] = system: IL-1RA; experiment: IL-1RA ELISA; format: cell-based, murine; settings: RAW 264.7 cells, 24 h
# Description: as §1
# (§2) The media of cells with or without 6 h TLR stimulation by Pam3 or LPS was harvested, and TNFα and IL-1RA levels were measured by ELISA (Duoset, R&D Systems, Minneapolis, Minn.) in duplicate wells according to the manufacturer's instructions. The cytokine concentrations were expressed as picogram per milligram of cell lysate. Experiments were repeated three times and values are expressed as the mean±SD.
# [3] = system: TNFα; experiment: TNFα ELISA, non-stimulated cells; format: cell-based, murine; settings: non-stimulated RAW 264.7 cells
# Description: as §1, §2
# [4] = system: RAW 264.7 cells; experiment: Cell viability assay (XTT assay); format: cell-based, murine; settings: 24 h
# Description: Cells were plated in triplicate wells at a density of 5×10^3 per well in 96-well plates in DMEM with 5% FBS and allowed to adhere overnight. Soluble CFZ (Stock solution 5 mM in DMSO) or CLDIs were added (0.25, 0.5, 1, 2, 4, 10, 20, 40 and 80 μM final concentrations) to cells and incubated (37° C.) for 24 h. XTT assay (Roche, UK) was carried out according to the manufacturer's instructions with absorbance measured at 450 nm and 690 nm using a Synergy-2 plate reader (Biotek). The cell viability percentage was calculated by comparing absorbance of CFZ and CLDI-treated cells to control (untreated) cells.
# [5] = Measurement of CFZ in tissues; format: in vivo, mice
# Description: Mice (4 week old, male C57Bl6) were purchased from the Jackson Laboratory (Bar Harbor, Me.) and acclimatized for 1 week in a specific-pathogen-free animal facility. Animal care was provided by the University of Michigan's Unit for Laboratory Animal Medicine (ULAM), and the experimental protocol was approved by the Committee on Use and Care of Animals. Clofazimine (CFZ) (C8895; Sigma-Aldrich, St. Louis, Mo.) was dissolved in sesame oil (Roland, China, or Shirakiku, Japan) to achieve a concentration of 3 mg/ml, which was mixed with Powdered Lab Diet 5001 (PMI International, Inc., St. Louis, Mo.) to produce a 0.03% drug to powdered feed (Baik et al., 2013, supra). […]
# CFZ mass was measured as previously reported (Baik et al., 2012, supra; Venkatesan, et al., Arzneim. Forsch. 2007, 57, 472-474). […] CFZ mass was spectrophotometrically determined in methanol (λ=490 nm) and the concentration was calculated using a standard curve generated by spiking extracted tissue of the control (vehicle-only treated) mice tissue with known amounts of drug. The tissue-to-fat partition ratios were computed based on mass of drug in the various tissues relative to mass of drug in total body fat (units: dimensionless; calculated as [mg CFZ/g tissue]/[mg CFZ/g fat]). […] CFZ mass was measured in relation to the measured weight of the tissue or plasma volume.
# [6] = system: TLR2; experiment: TNFα ELISA after Pam3 stimulation; format: cell-based, murine; settings: Pam3, 2 and 4 μM
# Description: as §1, §2
smiles,measurement,setting,value
"CC(C)/N=c1\cc2n(-c3ccc(Cl)cc3)c3ccccc3nc-2cc1Nc1ccc(Cl)cc1 [CFZ, 3-(p-chloroanilino)-10-(p-chlorophenyl)-2, 10-dihydro-2-isopropyliminophenazine]",IκB phosphorylation,[1]; LPS stimulation,inhibited LPS/TLR4-mediated IκB phosphorylation
same,IκB phosphorylation,[1]; Pam3 stimulation,the Pam3/TLR2-mediated response was not affected
same,IL-1RA secretion,[2],did not affect IL-1RA secretion
same,TNFα production on their own,[3],failed to induce TNFα production
same,cell viability,[4]; 2 μM,61%
same,cell viability,[4]; 10 μM,20%
same,CFZ mass retained in spleen,[5]; after the eight week washout period,exceeded its combined mass retained in the other organs
same,Kp,"[5]; male, C57Bl6, mouse, adipose tissue / serum, 10 mg/kg per day, starting at three weeks of oral administration, read-out: CFZ concentration in adipose tissue relative to serum",> 10000
same,Pam3/TLR2-mediated TNFα production,[6],Pam3/TLR2-mediated TNFα production was not affected
